Data set [1] has as its system conscious, male hypertensive Dahl salt-sensitive rats. Kind of data set: Acute effects on MAP and HR by telemetry in Dahl salt-sensitive rats. It counts as in vivo, rat. The following applies: Dahl-S rats. The source says:
The acute effects of ACT-132577 on blood pressure, in particular on mean arterial blood pressure (hereafter “MAP”), and heart rate (hereafter “HR”) can be evaluated by means of telemetry in conscious, male hypertensive Dahl salt-sensitive rats (hereafter “Dahl-S rats”—see details about this model in Rapp, Hypertension (1982), 4, 753-763). Elevated blood pressure is induced in Dahl-S rats by providing 1% sodium chloride in drinking water. Groups of 6-7 Dahl-S rats are used for the vehicle (7.5% gelatin aqeuous solution) and each dose of ACT-132577 tested (0.3, 1, 3, 10, 30, 100, and 300 mg/kg). Effects of ACT-132577 on HR and MAP are calculated for individual animals relative to the 24 h period before administering. The results obtained regarding MAP (maximal MAP decrease observed over 6 consecutive hours) are summarised in FIG. 3 (data are presented as mean±standard error of the mean). […] In contrast to MAP, HR was not affected.

Data set [2] deals with conscious, male hypertensive deoxycorticosterone acetate salt rats. The data set can be described thus: Acute effects on MAP and HR by telemetry in DOCA-salt rats. It counts as in vivo, rat. The source says: The acute effects of ACT-132577 on blood pressure, in particular on mean arterial blood pressure (hereafter “MAP”), and heart rate (hereafter “HR”) can be evaluated by means of telemetry in conscious, male hypertensive deoxycorticosterone acetate salt rats (hereafter “DOCA-salt rats”—see details about this model in Gavras et al., Circ. Res. (1975), 36, 300-309). In the DOCA-salt rats, hypertension is induced by the combination of unilateral nephrectomy, implantation of pellets of the mineralocorticoid analog DOCA, and provision of 1% sodium chloride in drinking water. Groups of 6-11 DOCA-salt rats are used for the vehicle (7.5% gelatin aqeuous solution) and each dose of ACT-132577 tested (0.3, 1, 3, 10, 30, 100, and 300 mg/kg). Effects of ACT-132577 on HR and MAP are calculated for individual animals relative to the 24 h period before administering. The results obtained regarding MAP (maximal MAP decrease observed over 6 consecutive hours) are summarised in FIG. 4 (data are presented as mean±standard error of the mean). […] In contrast to MAP, HR was not affected.

The test system of data set [3] is conscious, male spontaneaously hypertensive rats. Kind of data set: Acute effects on MAP and HR by telemetry in SHRs. The format is in vivo, rat. The procedure:
The acute effects of ACT-132577 on blood pressure, in particular on mean arterial blood pressure (hereafter “MAP”), and heart rate (hereafter “HR”) can be evaluated by means of telemetry in conscious, male spontaneaously hypertensive rats (hereafter “SHRs”—see details about this model in Atanur et al., Genome Res. (2010), 20, 791-803). Groups of 4-6 SHRs are used for the vehicle (7.5% gelatin aqeuous solution) and each dose of ACT-132577 tested (1, 3, 10, 30, 100, and 300 mg/kg). Effects of ACT-132577 on HR and MAP are calculated for individual animals relative to the 24 h period before administering. The results obtained regarding MAP (maximal MAP decrease observed over 6 consecutive hours) are summarised in FIG. 5 (data are presented as mean±standard error of the mean). […] In contrast to MAP, HR was not affected.

The subject of data set [4] is conscious, male hypertensive deoxycorticosterone acetate salt rats. The data set can be described thus: Chronic effects of ACT-132577 in DOCA-salt rats. It counts as in vivo, rat. The source says:
Res. (1975), 36, 300-309). In the DOCA-salt rats, hypertension is induced by the combination of unilateral nephrectomy, implantation of pellets of the mineralocorticoid analog DOCA, and provision of 1% sodium chloride in drinking water. The results of the DOCA-salt rats treated with ACT-132577 can be compared to those obtained for Wistar rats or for DOCA-salt rats that received only the vehicle (4% gelatin aqueous solution).

Data set [5] concerns male Wistar rats. The data set can be described thus: Effect on fluid retention: haematocrit in Wistar rats. The format is in vivo, rat. The following applies: single oral dose 1-30 mg/kg, 24 hours after administration. The method, then: A decrease in haematocrit (Hct) or haemoglobin occurs secondary to an increase in plasma volume and can be used as a marker of fluid retention. A single oral dose of ACT 132577 (1-30 mg/kg) or vehicle (gelatin) is administered by gavage to male Wistar rats. Twenty-four hours after administration, sublingual blood was sampled under isoflurane-induced anesthesia. Haematocrit is measured using a hematology analyser.

Data set [6] deals with Spontaneously hypertensive rats (SHR). The data set can be described thus: Blood pressure by telemetry in SHR, SGLT-2 inhibitor alone or in combination with ACT-132577. It counts as in vivo, rat. The source says: Spontaneously hypertensive rats (SHR) are instrumented micro-surgically with a telemetry pressure transmitter implanted in the peritoneal cavity (Data Science International, Minnesota, USA) under isoflurane-induced narcosis. In brief, the pressure catheter is inserted into the aorta, below the renal artery pointing upstream. The abdomen is closed and the transmitter sutured to the abdominal musculature. Blood pressure is collected continuously using the Dataquest ART Platinum acquisition system (version 4.36). Drugs (ACT-132577 or SGLT2 inhibitors) or vehicle are administered by gavage (n=4-7 per group) alone or in combination. Systolic, mean and diastolic arterial pressures, and heart rate are collected at 5-minute intervals until the blood pressure curve comes back to baseline.
Because it takes several days for the SGLT2 inhibitors to exert an effect on blood pressure, rats are treated first for 12 days with either vehicle (5 ml/kg/day), or canagliflozin (30 mg/kg/day) or empagliflozin (30 mg/kg/day), then ACT-132577 (30 mg/kg/day) is co-administered for 3 additional days.

The subject of data set [7] is conscious, male spontaneaously hypertensive rats. Kind of data set: Acute effects of Exforge HCT alone or with ACT-132577 or spironolactone in SHRs. It counts as in vivo, rat. The procedure:
The acute effects of Exforge HCT® (i.e. a fixed dose combination of valsartan/amlodipine/hydrochlorothiazide; dosage adapted for 1.6 mg/kg/0.1 mg/kg/0.25 mg/kg for valsartan/amlodipine/hydrochlorothiazide, respectively) on blood pressure, in particular on mean arterial blood pressure (hereafter “MAP”), and heart rate (hereafter “HR”) in combination with ACT-132577 or spironolactone can be evaluated by means of telemetry in conscious, male spontaneaously hypertensive rats (hereafter “SHRs”—see details about this model in Atanur et al., Genome Res. (2010), 20, 791-803).
9 SHRs per treatment group are used for this test. To match the maximal effect on blood pressure of co-administereds drug in this model, aprocitentan 100 mg/kg is administrated orally on the 3rd day following 3-day oral administration of Exforge HCT® mg/kg and spironolactone 300 mg/kg is co-administered orally with Exforge HCT® on the 1st day followed by 2 days of Exforge HCT® administration. The results obtained regarding MAP are summarised in FIGS. 15 and 16 wherein each data point is presented as a 6-hour mean.

The subject of data set [8] is conscious, male hypertensive deoxycorticosterone acetate salt rats. Kind of data set: Acute effects of Exforge HCT alone or with ACT-132577 or spironolactone in DOCA-salt rats. The format is in vivo, rat. The source says:
Res. (1975), 36, 300-309). In the DOCA-salt rats, hypertension is induced by the combination of unilateral nephrectomy, implantation of pellets of the mineralocorticoid analog DOCA, and provision of 1% sodium chloride in drinking water. 7-9 DOCA-salt rats per treatment group are used for this test. The results obtained regarding MAP are summarised in FIGS. 17 and 18 wherein each data point is presented as a 6-hour mean.

The conditions of data set [9]: in comparison to corresponding alkylated derivatives; cited from earlier work.
The mark [10] stands for this setting: chronic oral administration, DOCA-salt rats.
The mark [11] stands for this setting: oral, 1, 10 and 100 mg/kg/day for 4 weeks.

Structures are written as SMILES.

As for `NS(=O)(=O)Nc1ncnc(OCCOc2ncc(Br)cn2)c1-c1ccc(Br)cc1` [ACT-132577, {5-(4-bromo-phenyl)-6-[2-(5-bromo-pyrimidin-2-yloxy)-ethoxy]-pyrimidin-4-yl}-sulfamide], the “Heart rate (HR)” value in data set [1] was “not affected”; in data set [2] it was “not affected”; in [3] it was “not affected”; in data set [4] (setting [11]) it was “without changing HR”. For the same compound, the “MAP decrease (maximal MAP decrease observed over 6 consecutive hours)” value is 19±4 mm Hg in data set [1] (10 mg/kg, mean±SEM); 29±6 mm Hg in data set [2] (10 mg/kg, mean±SEM); 18±4 mm Hg in [3] (100 mg/kg, mean±SEM). Also, the Left ventricular hypertrophy entry in data set [4] (setting [10]) is “tended to decrease”. The “Plasma concentrations of N-terminal pro-brain natriuretic peptide (NTproBNP)” value in data set [4] (setting [10]) is “dose-dependent decrease”. For the same compound, the Renal blood flow result in data set [4] (setting [10]) is “dose-dependently increased”. In [4] (setting [10]), the Renal vascular resistance result is recorded as “decreased”. Moreover, in data set [4] (setting [11]), the “DOCA-salt-induced increase in MAP” value is given as “dose-dependently attenuated”. Moreover, the “Haematocrit (Hct), marker of fluid retention” value in [5] was “did not impact”. Besides, the “Further decrease of blood pressure (MAP) on top of canagliflozin” value in data set [6] (ACT-132577 30 mg/kg/day for 3 days after 12 days canagliflozin 30 mg/kg/day) was −14±1 mmHg. In data set [6] (ACT-132577 30 mg/kg/day for 3 days after 12 days empagliflozin 30 mg/kg/day), the “Further decrease of blood pressure (MAP) on top of empagliflozin” value was −18±3 mmHg. Also, the “Decrease in blood pressure (MAP) on top of vehicle, without canagliflozin” value in data set [6] (ACT-132577 30 mg/kg/day on top of vehicle (canagliflozin comparison)) is −16±2 mmHg. Besides, in data set [6] (ACT-132577 30 mg/kg/day on top of vehicle (empagliflozin comparison)), the “Decrease in blood pressure (MAP) on top of vehicle, without empagliflozin” value is given as −14±2 mmHg. Also, the “Blood pressure when added on top of Exforge HCT” value is listed as “further reduced blood pressure” in data set [7] (aprocitentan 100 mg/kg or spironolactone 300 mg/kg oral) and “further reduced blood pressure” in [8] (aprocitentan 10 mg/kg or spironolactone 300 mg/kg, single oral doses). For the same compound, the “Blood pressure reduction compared with spironolactone, on top of Exforge HCT” value in data set [7] (aprocitentan 100 mg/kg vs spironolactone 300 mg/kg) and in data set [8] (aprocitentan 10 mg/kg vs spironolactone 300 mg/kg) was “greater blood pressure reduction than spironolactone” each time. Also, in [9], the Clearance in vivo result is “much shorter”. The Half-life in vivo entry in [9] was “much longer”.
